Earlier results, collected in US20240226128A1, “NOVEL COMPOUNDS WITH DUAL INHIBITION ACTIVITY AGAINST SARS-COV-2 CRITICAL ENZYMES RDRP, MPRO AND HUMAN TMPRSS2” (priority 2022, published 2024).

System: COVID-19
Settings: high-risk patient including different variants; cited from earlier work

## CC(C)C(=O)OC[C@H]1O[C@@H](n2ccc(NO)nc2=O)[C@H](O)[C@@H]1O [Molnupiravir]
  reduced risk of COVID-19 death: 50%
